The values that follow come from patent publication US20090036470A1, “PALIPERIDONE DERIVATIVES” (priority 2007, published 2009).

The nature of the data set: Conversion of the compound (2) into paliperidone in acidic fluid (dissolution test of the Example 5 tablet in Simulated Gastric Fluid). The format is physicochemical. Here is the method:
Conversion of the Compound (2) into Paliperidone in Acidic Fluid
A tablet of the following composition was prepared:
Compound (2), Prosolv HD-90 and low substituted hydroxypropylcellulose were mixed for 10 minutes at 22 rpm in a free fall mixer. The blend was forced sieved over a 250 micron sieve. The blend was then mixed for another 10 minutes in a free fall mixer at 22 rpm. The sodium stearyl fumarate was sieved over an 800 micron sieve and added to the blend. The blend was mixed for another 5 minutes at 22 rpm. Tablets were compressed on the Ek-0. Tablet mass was 100 mg, tablet hardness 30 N and the tablet diameter was 8 mm.
Determination of the dissolution assay at single point or dissolution profile was performed in Simulated Gastric Fluid (SGF) without pepsin (pH=1.2) with the paddle apparatus based on USP <711>, “Apparatus 2”. The dissolution samples were immediately neutralized to pH=7 upon sampling. The amount of paliperidone and compound (2) in the neutralized dissolution samples at the specified time point(s) was determined by HPLC at 280 nm.

`Cc1nc2n(c(=O)c1CCN1CCC(c3noc4cc(F)ccc34)CC1)CCCC2OC1CCCCO1` (centres unmarked) [Compound (2)]: the “time for quantitative conversion into paliperidone” value (Simulated Gastric Fluid without pepsin, pH=1.2, USP paddle apparatus 2, from Example 5 tablet (10.8 mg compound (2)), HPLC at 280 nm, six vessel test, FIGS. 1 and 2) is reported as “approx. 10 minutes”. For the same compound, the “extent of conversion into paliperidone” value (acidic fluid, as shown in FIG. 1) is listed as “quantitatively”.
